Measured values published in patent publication US10301304B2, “Selective inhibitor of phosphatidylinositol 3-kinase-gamma” (VERTEX PHARMACEUTICALS INCORPORATED, priority 2013, dated 2019).
Read-outs that look alike come from different tables or passages of the source.

Legend:
MDCK-WT = assay: Permeability in MDCK wild-type cell line; format: in vitro ADME, canine; details: 1 μM, A > B
Experimental: The permeability of Compound 1 was evaluated using both Caco-2 and MadinDarby canine kidney (MDCK) wild-type cell lines. Cells were exposed to drug in buffer on the apical side (measuring permeability in the A-to-B direction) or basolateral side (measuring permeability in the B-to-A direction) and incubated at 37° C. for one hour. Permeability was high in the A-to-B direction in both the MDCK and Caco-2 cell lines (33 and 18×10^−6 cm/sec, respectively).

[1] = Oral pharmacokinetics / bioavailability; format: in vivo, Rat
Source text: The bioavailability in monkey (greater than 100%) may be explained by the tenfold difference between the IV and oral doses. Compound 1 was rapidly absorbed in all species, with maximum systemic concentration observed within approximately one to three hours of dosing.

[2] = Tissue Distribution in Rats; format: in vivo, rat; details: 5 mg/kg oral; for Kp at 0.5 h / Kp at 2 h / Kp at 7 h / Kp at 24 h / Kp at 48 h / Kp at 0.5 hr / Kp at 2 hr / Kp at 7 hr / Kp at 24 hr / Kp at 48 hr: male
Experimental: Compound 1 distributed well into most tissues after an oral dose of 5 mg/kg administered to male rats. […] The tissue to plasma ratio followed the trend of liver>kidney>heart>lung>spleen>brain>CSF. The elimination kinetics of Compound 1 in each examined organ followed plasma kinetics. There was no evidence for tissue accumulation of Compound 1 after a single dose administration.

CD40 induced colitis = CD40 induced colitis (IBD) model, body weight loss; format: in vivo, mouse
Experimental: The PI3Kγ inhibitor, Compound 1, was tested in a CD40 induced colitis model to determine its effect on disease course. The CD40 model of IBD is induced by injecting an anti-CD40 monoclonal antibody (agonist, i.e., activating antibody versus neutralizing antibody) into T and B cell deficient mice (Rag 1−/− mice) to induce both systemic and intestinal inflammation that leads to colitis and wasting disease via the innate immune pathway. (See, e.g., Immunity 25, 309-318, August 2006). Briefly, Rag1 knock-out mice were injected IP with the anti-CD40 monoclonal antibody FGK45. Starting on Day 0, mice were treated with PBS, vehicle or Compound 1 at 5 mg/kg b.i.d. or 10 mg/kg b.i.d. Compound 1 was administered IP for 7 days on a 10/14-hour b.i.d. dosing regimen. Compound 1 was formulated in 5% NMP/15% PEG-400/80% in a 0.5% HPMC-E50 solution in water. At study termination, serum and colon samples were collected at 2 hours following the last dose for drug concentration analysis. Body weights were measured daily during the study. Compound 1 concentrations were analyzed in the plasma samples collected 2 hours following the final dose at study termination. Concentrations were determined using a high performance liquid chromatography/tandem mass spectrometry (HPLC/MS/MS) method.

CYP3A4 = CYP3A4 (Homo sapiens, UniProt P08684); assay: Inhibition of CYP Enzymes in Human Liver Microsomes; format: in vitro ADME; parameters: evaluated in human liver microsomes using the IC50 shift assay; from tissue; host or cells: human liver microsomes
Experimental: Inhibition assays were conducted with selective CYP probes for each CYP enzyme at specific concentrations of substrate (close to its dissociation constant (Km) value). Compound 1 was a moderate inhibitor of CYP 1A2, 2B6 and 2C8; […]

[3] = in vivo, Rat, single oral, 1 mg/kg nominal, spray-dried dispersion

CYP3A4, sequence (P08684 whole entry): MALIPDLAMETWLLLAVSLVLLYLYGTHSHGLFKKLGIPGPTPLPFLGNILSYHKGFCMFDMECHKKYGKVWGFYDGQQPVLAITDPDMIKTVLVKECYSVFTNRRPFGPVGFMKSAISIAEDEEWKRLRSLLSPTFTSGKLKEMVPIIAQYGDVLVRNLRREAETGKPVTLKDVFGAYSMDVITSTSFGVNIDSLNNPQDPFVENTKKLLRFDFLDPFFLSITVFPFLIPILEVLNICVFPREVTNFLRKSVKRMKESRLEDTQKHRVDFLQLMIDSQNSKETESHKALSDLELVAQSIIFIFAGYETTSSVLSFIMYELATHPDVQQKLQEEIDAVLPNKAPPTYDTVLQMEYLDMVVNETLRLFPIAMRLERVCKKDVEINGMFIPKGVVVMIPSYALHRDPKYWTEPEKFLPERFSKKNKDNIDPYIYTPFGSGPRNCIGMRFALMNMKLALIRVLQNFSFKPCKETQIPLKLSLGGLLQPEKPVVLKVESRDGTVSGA

Structure (SMILES): Cc1cc(-c2cncc([C@@H](O)C(F)(F)F)c2)nc2c1C(=O)N(c1cnn(CC(F)F)c1)C2(C)C [Compound 1, (R)-6-(1-(2,2-difluoroethyl)-1H-pyrazol-4-yl)-4,7,7-trimethyl-2-(5-(2,2,2-trifluoro-1-hydroxyethyl)pyridin-3-yl)-6,7-dihydro-5H-pyrrolo[3,4-b]pyridin-5-one]
- Avg. Papp (MDCK-WT): 17.55 ×10⁻⁶ cm/s
- DN_AUCINF ([1]; Rat, single oral, 1 mg/kg nominal, spray-dried dispersion): 5140 ng·h/mL
- F ([1]; Rat, single oral, 1 mg/kg nominal, spray-dried dispersion, 1 mg/kg): 84%
- AUC(0-inf) [1, 3]: 5110 ng·h/mL
- MRT [1, 3]: 18.3 h
- Tmax [1, 3]: 3.33 h
- half-life [1, 3]: 12.5 h
- AUC ([1]; in vivo, Rat, single oral, 1 mg/kg nominal, spray-dried dispersion, read-out: AUCALL): 5000 ng·h/mL
- Cmax ([1]; in vivo, Rat, single oral, 1 mg/kg nominal, spray-dried dispersion, read-out: Cmax): 260 ng/mL
- AUC ([1]; rat, in vivo, Oral gavage, 3 mg/kg nominal dose, vehicle 0.2%MC/1%SLS, read-out: Rat PO AUC): 18000 ng·h/mL
- Cmax ([1]; rat, in vivo, Oral gavage, 3 mg/kg nominal dose, vehicle 0.2%MC/1%SLS, read-out: Rat PO Cmax): 1000 ng/mL
- Cmax, brain ([2]; male rats): 111 ng/g
- Cmax, kidney ([2]; male rats): 4770 ng/g
- Cmax, liver ([2]; male rats): 11400 ng/g
- tissue to plasma ratio trend ([2]; male rats, in words): liver>kidney>heart>lung>spleen>brain>CSF
- Kp at 0.5 h ([2]; CSF (relative to plasma), rat, 0.5 hr post dose, read-out: Tissue to Plasma Ratio, CSF): 0.01
- Kp at 2 h ([2]; CSF (relative to plasma), rat, 2 hr post dose, read-out: Tissue to Plasma Ratio, CSF): 0.01
- Kp at 7 h ([2]; CSF (relative to plasma), rat, 7 hr post dose, read-out: Tissue to Plasma Ratio, CSF): 0.01
- Kp at 24 h ([2]; CSF (relative to plasma), rat, 24 hr post dose, read-out: Tissue to Plasma Ratio, CSF): 0.01
- Kp at 7 h ([2]; brain (relative to plasma), rat, 7 hr post dose, read-out: Tissue to Plasma Ratio, Brain): 0.05
- Kp at 24 h ([2]; brain (relative to plasma), rat, 24 hr post dose, read-out: Tissue to Plasma Ratio, Brain): 0.06
- Kp at 0.5 h ([2]; brain, rat, 0.5 hr post dose, read-out: Tissue to Plasma Ratio, Brain): 0.04
- Kp at 2 h ([2]; brain, rat, 2 hr post dose, read-out: Tissue to Plasma Ratio, Brain): 0.07
- Kp at 48 h ([2]; brain, rat, 48 hr post dose, read-out: Tissue to Plasma Ratio, Brain): 0.07
- Kp at 0.5 hr ([2]; heart, rat, 0.5 hr post dose, read-out: Tissue to Plasma Ratio, Heart): 0.98
- Kp at 2 hr ([2]; heart, rat, 2 hr post dose, read-out: Tissue to Plasma Ratio, Heart): 1.67
- Kp at 7 hr ([2]; heart, rat, 7 hr post dose, read-out: Tissue to Plasma Ratio, Heart): 1.4
- Kp at 24 hr ([2]; heart, rat, 24 hr post dose, read-out: Tissue to Plasma Ratio, Heart): 1.46
- Kp at 48 hr ([2]; heart, rat, 48 hr post dose, read-out: Tissue to Plasma Ratio, Heart): 1.39
- Kp at 0.5 hr ([2]; kidney, rat, 0.5 hr post dose, read-out: Tissue to Plasma Ratio, Kidney): 1.75
- Kp at 2 hr ([2]; kidney, rat, 2 hr post dose, read-out: Tissue to Plasma Ratio, Kidney): 2.54
- Kp at 7 hr ([2]; kidney, rat, 7 hr post dose, read-out: Tissue to Plasma Ratio, Kidney): 2.16
- Kp at 24 hr ([2]; kidney, rat, 24 hr post dose, read-out: Tissue to Plasma Ratio, Kidney): 3.03
- Kp at 48 hr ([2]; kidney, rat, 48 hr post dose, read-out: Tissue to Plasma Ratio, Kidney): 4.76
- Kp at 0.5 h ([2]; liver, rat, 0.5 hr post dose, read-out: Tissue to Plasma Ratio, Liver): 4.96
- Kp at 2 h ([2]; liver, rat, 2 hr post dose, read-out: Tissue to Plasma Ratio, Liver): 6.99
- Kp at 7 h ([2]; liver, rat, 7 hr post dose, read-out: Tissue to Plasma Ratio, Liver): 5.13
- Kp at 24 h ([2]; liver, rat, 24 hr post dose, read-out: Tissue to Plasma Ratio, Liver): 5.69
- Kp at 48 hr ([2]; liver, rat, 48 hr post dose, read-out: Tissue to Plasma Ratio, Liver): 5.32
- Kp at 0.5 h ([2]; lung, rat, 0.5 hr post dose, read-out: Tissue to Plasma Ratio, Lung): 1.24
- Kp at 2 h ([2]; lung, rat, 2 hr post dose, read-out: Tissue to Plasma Ratio, Lung): 1.38
- Kp at 7 h ([2]; lung, rat, 7 hr post dose, read-out: Tissue to Plasma Ratio, Lung): 1.22
- Kp at 24 h ([2]; lung, rat, 24 hr post dose, read-out: Tissue to Plasma Ratio, Lung): 1.17
- Kp at 48 h ([2]; lung, rat, 48 hr post dose, read-out: Tissue to Plasma Ratio, Lung): 1.31
- Kp at 0.5 h ([2]; spleen, rat, 0.5 hr post dose, read-out: Tissue to Plasma Ratio, Spleen): 0.74
- Kp at 2 h ([2]; spleen, rat, 2 hr post dose, read-out: Tissue to Plasma Ratio, Spleen): 1.15
- Kp at 7 h ([2]; spleen, rat, 7 hr post dose, read-out: Tissue to Plasma Ratio, Spleen): 0.81
- Kp at 24 h ([2]; spleen, rat, 24 hr post dose, read-out: Tissue to Plasma Ratio, Spleen): 0.93
- Kp at 48 h ([2]; spleen, rat, 48 hr post dose, read-out: Tissue to Plasma Ratio, Spleen): 0.88
- Compound 1 Concentration, Brain ([2]; rat, 0.5 hr post dose): 74 ng/ml or ng/g
- Compound 1 Concentration, CSF ([2]; rat, 0.5 hr post dose): 20 ng/ml or ng/g
- Compound 1 Concentration, Heart ([2]; rat, 0.5 hr post dose): 1730 ng/ml or ng/g
- Compound 1 Concentration, Kidney ([2]; rat, 0.5 hr post dose): 3070 ng/ml or ng/g
- Compound 1 Concentration, Liver ([2]; rat, 0.5 hr post dose): 8710 ng/ml or ng/g
- Compound 1 Concentration, Lung ([2]; rat, 0.5 hr post dose): 2180 ng/ml or ng/g
- Compound 1 Concentration, Plasma ([2]; rat, 0.5 hr post dose): 1760 ng/ml or ng/g
- Compound 1 Concentration, Spleen ([2]; rat, 0.5 hr post dose): 1290 ng/ml or ng/g
- Compound 1 Concentration, Brain ([2]; rat, 2 hr post dose): 129 ng/ml or ng/g
- Compound 1 Concentration, CSF ([2]; rat, 2 hr post dose): 23.3 ng/ml or ng/g
- Compound 1 Concentration, Heart ([2]; rat, 2 hr post dose): 3280 ng/ml or ng/g
- Compound 1 Concentration, Kidney ([2]; rat, 2 hr post dose): 4980 ng/ml or ng/g
- Compound 1 Concentration, Liver ([2]; rat, 2 hr post dose): 13700 ng/ml or ng/g
- Compound 1 Concentration, Lung ([2]; rat, 2 hr post dose): 2710 ng/ml or ng/g
- Compound 1 Concentration, Plasma ([2]; rat, 2 hr post dose): 1960 ng/ml or ng/g
- Compound 1 Concentration, Spleen ([2]; rat, 2 hr post dose): 1790 ng/ml or ng/g
- Compound 1 Concentration, Brain ([2]; rat, 7 hr post dose): 111 ng/ml or ng/g
- Compound 1 Concentration, CSF ([2]; rat, 7 hr post dose): 27 ng/ml or ng/g
- Compound 1 Concentration, Heart ([2]; rat, 7 hr post dose): 3100 ng/ml or ng/g
- Compound 1 Concentration, Kidney ([2]; rat, 7 hr post dose): 4770 ng/ml or ng/g
- Compound 1 Concentration, Liver ([2]; rat, 7 hr post dose): 11400 ng/ml or ng/g
- Compound 1 Concentration, Lung ([2]; rat, 7 hr post dose): 2700 ng/ml or ng/g
- Compound 1 Concentration, Plasma ([2]; rat, 7 hr post dose): 2210 ng/ml or ng/g
- Compound 1 Concentration, Spleen ([2]; rat, 7 hr post dose): 491 ng/ml or ng/g
- Compound 1 Concentration, Brain ([2]; rat, 24 hr post dose): 30 ng/ml or ng/g
- Compound 1 Concentration, CSF ([2]; rat, 24 hr post dose): 5 ng/ml or ng/g
- Compound 1 Concentration, Heart ([2]; rat, 24 hr post dose): 771 ng/ml or ng/g
- Compound 1 Concentration, Kidney ([2]; rat, 24 hr post dose): 1600 ng/ml or ng/g
- Compound 1 Concentration, Liver ([2]; rat, 24 hr post dose): 3010 ng/ml or ng/g
- Compound 1 Concentration, Lung ([2]; rat, 24 hr post dose): 617 ng/ml or ng/g
- Compound 1 Concentration, Plasma ([2]; rat, 24 hr post dose): 592 ng/ml or ng/g
- Compound 1 Concentration, Spleen ([2]; rat, 24 hr post dose): 125 ng/ml or ng/g
- Compound 1 Concentration, Brain ([2]; rat, 48 hr post dose): 9.35 ng/ml or ng/g
- Compound 1 Concentration, CSF ([2]; rat, 48 hr post dose): BQL
- Compound 1 Concentration, Heart ([2]; rat, 48 hr post dose): 196 ng/ml or ng/g
- Compound 1 Concentration, Kidney ([2]; rat, 48 hr post dose): 673 ng/ml or ng/g
- Compound 1 Concentration, Liver ([2]; rat, 48 hr post dose): 750 ng/ml or ng/g
- Compound 1 Concentration, Lung ([2]; rat, 48 hr post dose): 185 ng/ml or ng/g
- Compound 1 Concentration, Plasma ([2]; rat, 48 hr post dose): 141 ng/ml or ng/g
- Compound 1 Concentration, Spleen ([2]; rat, 48 hr post dose): BQL
- Tissue to Plasma Ratio, CSF ([2]; rat, 48 hr post dose): BQL
- Kp ([2]; rat, brain and CSF, relative to plasma, male rats, read-out: brain and CSF exposure, % of the plasma exposure): < 0.001
- Cmax ([2]; rat, cerebrospinal fluid (CSF), male rats): 27 ng/mL
- body weight loss (FIG. 4) (CD40 induced colitis; 5 mg/kg b.i.d. IP, *p<0.05 d3, **p<0.01 d4, vs vehicle): significantly inhibited
- body weight loss (FIG. 4) (CD40 induced colitis; 10 mg/kg b.i.d. IP, ***p<0.001 d3-4, vs vehicle): significantly inhibited
- IC50 (CYP3A4; CYP3A4, 2.5 μM Midazolam): 19 µM
- IC50 (CYP3A4; CYP3A4, 50 μM Testosterone): > 75 µM
